13 molecules from patent US5384411A, “Immobilization of PH-sensitive dyes to solid supports” (Hewlett-Packard Company, priority 1991, dated 1995) can be followed below.

One data set in a line: pKa and color change with pH of carboxy-phenolphthaleins bound to Sepharose 4B. It counts as physicochemical. The settings on record: dye bound to Sepharose 4B. The method, then:
Place 0.5 g of Sepharose 4B (commercially available from Pharmacia Inc., Piscataway, N.J. as order number 17-0470-01) in 0.5M NaCl for 1 hour and then collect and set aside. Place the appropriate carboxy-phenolphthalein (1.3 mmol) in about 1 ml dimethylformamide and cool to 0° C. in a ice-ethanol bath. […] Leave the reaction at this cold temperature for 15-20 minutes. Then add the Sepharose 4B gel to reaction along with a scoop of benzyltributyl ammonium bromide and 30 ml of borate buffer (pH 9). Place the reaction flask on a shaker overnight at room temperature. Collect the support on a frit and wash with volumes of water, ethanol, acetone and buffered water. Finally, dialyze the support against water for 1-2 days.
A word on the pKa: it is the negative logarithm of the acid dissociation constant. A high value points to a group that holds its proton tightly. As for `O=C(O)c1ccc2c(c1)C(=O)OC2(c1ccc(O)cc1)c1ccc(O)cc1` [Example 4A], the pKa is 10.

Turning to `O=C(O)c1ccc2c(c1)C(=O)OC2(c1ccc(O)c2ccccc12)c1ccc(O)c2ccccc12` [Example 4E], the pKa is on record as greater than 10.

For `O=C(O)c1ccc2c(c1)C(=O)OC2(c1cc([N+](=O)[O-])c(O)cc1[N+](=O)[O-])c1cc([N+](=O)[O-])c(O)cc1[N+](=O)[O-]` [Example 4G], the pKa is ~ 4.

As to `O=C(O)c1ccc2c(c1)C(=O)OC2(c1cc(Cl)c(O)c([N+](=O)[O-])c1)c1cc(Cl)c(O)c([N+](=O)[O-])c1` [Example 4H], the pKa is listed as ~ 5.5.

As to `O=C(O)c1ccc2c(c1)C(=O)OC2(c1ccc(O)c(O)c1)c1ccc(O)c(O)c1` [Example 4I], the pKa is reported as ~ 7.

For `O=C(O)c1ccc2c(c1)C(=O)OC2(c1cc(O)c(O)cc1[N+](=O)[O-])c1cc(O)c(O)cc1[N+](=O)[O-]` [Example 4J], the pKa is given as ~ 6.

Another data set is described as follows: pKa and pH dye properties of amino-phenolphthaleins bound to Sepharose 6B. It counts as physicochemical. The settings on record: dye bound to Sepharose 6B. Here is the method: The amino-phenolphthaleins of Examples 2A-2E were reacted with a solid support by the following general procedure:
Place 0.5 g of Sepharose 6B (commercially available from Pharmacia Inc., Piscataway, N.J. as order number 17-0480-01) into deionized water for 30-45 min. to swell. Collect the white gel. In reaction beaker, place 0.3-0.5 g of an appropriate amino-phthalein into 3 ml dioxane and 20 ml of carbonate buffer (pH 10.5). Add the gel and let sit at 35° for 20 hrs. Collect the gel on a glass frit and wash with water, ethanol, acetone and high and low pH buffers. Dialyze the gel against deionized water for 2 days.
`Nc1cccc2c1C(=O)OC2(c1ccc(O)cc1)c1ccc(O)cc1` [Example 2A]: the pKa result is on record as “approximately 10”.

Turning to `Cc1cc(C2(c3cc(C)c(O)cc3C)OC(=O)c3c(N)cccc32)c(C)cc1O` [Example 2B], the pKa is roughly 12.

For the molecule `Nc1cccc2c1C(=O)OC2(c1ccc(O)c(Br)c1)c1ccc(O)c(Br)c1` [Example 2C], the “retention of dye properties after coupling” value is reported as “no longer retained their dye properties”.

With `Nc1cccc2c1C(=O)OC2(c1ccc(O)c(Cl)c1)c1ccc(O)c(Cl)c1` [Example 2D], the “retention of dye properties after coupling” value is “no longer retained their dye properties”.

A short description of a further data set: pKa of carboxy-sulfonephthaleins bound to aminoethyl cellulose. The following applies: dye bound to aminoethyl cellulose. In kind it is physicochemical. The method, then:
The carboxy-sulfonephthaleins of Examples 8A-8C were reacted with a solid support by the following general procedure:
Place 0.5 g aminoethyl cellulose (commercially available from Serva Biochemicals, Westbury, N.Y. 11590 as order no. 45015) in 30 ml of deionized water and set aside. Place 0.2 g of an appropriate dye in 25 ml of pyridine-HCl buffer (pH 5.8). Add the filtered cellulose to this reaction along with 83 mg of N-ethyl-N'-(3-dimethylaminopropyl)carbodimidehydrochloride (EDC). Place the reaction on a shaker overnight at room temperature. Collect the support and wash with large volumes of water, ethanol, acetone, DMF and pH buffers over the course of 2 days. Collect a final colored support. Also, this same procedure was run using aminopropyl silica beads (Serva #43660) in place of cellulose.
The pKa 's of the carboxy-sulfonephenolphthaleins bound to the solid support (aminoethyl cellulose) was determined and are set forth in Table 4 below: […]
Molecule `O=C(O)c1ccc2c(c1)S(=O)(=O)OC2(c1ccc(O)cc1)c1ccc(O)cc1` [Example 8A] came in with a pKa of 7.6.

Regarding `O=C(O)c1ccc2c(c1)S(=O)(=O)OC2(c1ccc(O)c(Cl)c1)c1ccc(O)c(Cl)c1` [Example 8B], the pKa is 6.2.

On to `Cc1cc(O)c(C(C)C)cc1C1(c2cc(C(C)C)c(O)cc2C)OS(=O)(=O)c2cc(C(=O)O)ccc21` [Example 8C], for which the pKa turned out to be 9.2.
